How the values were obtained:
Assay in all cases: relative viability (nuclei count vs DMSO), 5 days (fraction); higher = more cells survive
[1] = tested on: PC-14
In short: (§1)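 Lung cancer cell lines in 1536-well plates were dosed by pin tool the day after seeding, either with one drug alone or with a fixed anchor-drug dose plus five library-drug doses (not always all listed) in √10 steps. After 5 days, cells were fixed and their nuclei stained in one step (final 0.05% Triton X-100, 1% formaldehyde, 1 ug/ml Hoechst), then counted on 4× images. Relative viability is the nuclei count in treated wells divided by that in vehicle wells. Values are medians of duplicate plates.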

[2] = tested on: NCI-H596
In short: as §1

[3] = tested on: LCLC-97TM1
In short: as §1

[4] = tested on: NCI-H441
In short: as §1

[5] = tested on: NCI-H2126
In short: as §1

[6] = tested on: NCI-H460
In short: as §1

[7] = tested on: HCC-78
In short: as §1

[8] = tested on: SW 900
In short: as §1

[9] = tested on: NCI-H647
In short: as §1

[10] = tested on: LCLC-103H
In short: as §1

[11] = tested on: HCC-366
In short: as §1

[12] = tested on: ChaGo-K-1
In short: as §1

[13] = tested on: NCI-H1734
In short: as §1

[14] = tested on: LOU-NH91
In short: as §1

[15] = tested on: HARA
In short: as §1

[16] = tested on: NCI-H650
In short: as §1

[17] = tested on: NCI-H1355
In short: as §1

[18] = tested on: 201T
In short: as §1

[19] = tested on: NCI-H1792
In short: as §1

[20] = tested on: HCC-15
In short: as §1

Compound: COCC1(CO)C(=O)C2CCN1CC2 (configuration not stated) [PRIMA-1MET] + NC(=O)Nc1cc(-c2cccc(F)c2)sc1C(=O)N[C@H]1CCCNC1 [AZD7762] (partner 0.2 µM)
- relative viability ([1]; first compound 0.2 µM): 0.407
- relative viability ([1]; first compound 0.6325 µM): 0.386
- relative viability ([1]; first compound 2 µM): 0.319
- relative viability ([1]; first compound 6.325 µM): 0.387
- relative viability ([1]; first compound 20 µM): 0.178
- relative viability ([2]; first compound 0.2 µM): 1.24
- relative viability ([2]; first compound 0.6325 µM): 1
- relative viability ([2]; first compound 2 µM): 0.884
- relative viability ([2]; first compound 6.325 µM): 1.22
- relative viability ([2]; first compound 20 µM): 0.232
- relative viability ([3]; first compound 0.2 µM): 0.268
- relative viability ([3]; first compound 0.6325 µM): 0.226
- relative viability ([3]; first compound 2 µM): 0.212
- relative viability ([3]; first compound 6.325 µM): 0.336
- relative viability ([3]; first compound 20 µM): 0.166
- relative viability ([4]; first compound 0.2 µM): 1.09
- relative viability ([4]; first compound 0.6325 µM): 1.06
- relative viability ([4]; first compound 2 µM): 0.833
- relative viability ([4]; first compound 6.325 µM): 1.1
- relative viability ([4]; first compound 20 µM): 0.731
- relative viability ([5]; first compound 0.2 µM): 1.05
- relative viability ([5]; first compound 0.6325 µM): 1.02
- relative viability ([5]; first compound 2 µM): 0.975
- relative viability ([5]; first compound 6.325 µM): 1.02
- relative viability ([5]; first compound 20 µM): 0.978
- relative viability ([6]; first compound 0.2 µM): 0.705
- relative viability ([6]; first compound 0.6325 µM): 0.382
- relative viability ([6]; first compound 2 µM): 0.659
- relative viability ([6]; first compound 6.325 µM): 0.703
- relative viability ([6]; first compound 20 µM): 0.251
- relative viability ([7]; first compound 0.2 µM): 0.893
- relative viability ([7]; first compound 0.6325 µM): 0.62
- relative viability ([7]; first compound 2 µM): 0.555
- relative viability ([7]; first compound 6.325 µM): 0.69
- relative viability ([7]; first compound 20 µM): 0.174
- relative viability ([8]; first compound 0.2 µM): 0.553
- relative viability ([8]; first compound 0.6325 µM): 0.632
- relative viability ([8]; first compound 6.325 µM): 0.573
- relative viability ([8]; first compound 20 µM): 0.101
- relative viability ([9]; first compound 0.2 µM): 0.578
- relative viability ([9]; first compound 0.6325 µM): 0.434
- relative viability ([9]; first compound 2 µM): 0.38
- relative viability ([9]; first compound 6.325 µM): 0.383
- relative viability ([9]; first compound 20 µM): 0.137
- relative viability ([10]; first compound 0.2 µM): 0.889
- relative viability ([10]; first compound 0.6325 µM): 0.732
- relative viability ([10]; first compound 2 µM): 0.673
- relative viability ([10]; first compound 6.325 µM): 0.768
- relative viability ([10]; first compound 20 µM): 0.756
- relative viability ([11]; first compound 0.2 µM): 0.3
- relative viability ([11]; first compound 0.6325 µM): 0.186
- relative viability ([11]; first compound 2 µM): 0.223
- relative viability ([11]; first compound 6.325 µM): 0.281
- relative viability ([11]; first compound 20 µM): 0.168
- relative viability ([12]; first compound 0.2 µM): 0.765
- relative viability ([12]; first compound 0.6325 µM): 0.794
- relative viability ([12]; first compound 2 µM): 0.819
- relative viability ([12]; first compound 6.325 µM): 0.85
- relative viability ([12]; first compound 20 µM): 0.779
- relative viability ([13]; first compound 0.2 µM): 0.52
- relative viability ([13]; first compound 0.6325 µM): 0.538
- relative viability ([13]; first compound 2 µM): 0.685
- relative viability ([13]; first compound 6.325 µM): 0.452
- relative viability ([13]; first compound 20 µM): 0.0452
- relative viability ([14]; first compound 0.2 µM): 0.828
- relative viability ([14]; first compound 0.6325 µM): 0.74
- relative viability ([14]; first compound 2 µM): 0.658
- relative viability ([14]; first compound 6.325 µM): 0.71
- relative viability ([14]; first compound 20 µM): 0.386
- relative viability ([15]; first compound 0.2 µM): 0.308
- relative viability ([15]; first compound 0.6325 µM): 0.265
- relative viability ([15]; first compound 2 µM): 0.493
- relative viability ([15]; first compound 6.325 µM): 0.333
- relative viability ([15]; first compound 20 µM): 0.254
- relative viability ([16]; first compound 0.2 µM): 0.961
- relative viability ([16]; first compound 0.6325 µM): 0.828
- relative viability ([16]; first compound 2 µM): 0.983
- relative viability ([16]; first compound 6.325 µM): 0.995
- relative viability ([16]; first compound 20 µM): 0.148
- relative viability ([17]; first compound 0.2 µM): 0.887
- relative viability ([17]; first compound 0.6325 µM): 0.61
- relative viability ([17]; first compound 2 µM): 0.702
- relative viability ([17]; first compound 6.325 µM): 0.874
- relative viability ([17]; first compound 20 µM): 0.72
- relative viability ([18]; first compound 0.2 µM): 0.484
- relative viability ([18]; first compound 0.6325 µM): 0.578
- relative viability ([18]; first compound 2 µM): 0.626
- relative viability ([18]; first compound 6.325 µM): 0.577
- relative viability ([18]; first compound 20 µM): 0.563
- relative viability ([19]; first compound 0.2 µM): 0.569
- relative viability ([19]; first compound 6.325 µM): 0.907
- relative viability ([19]; first compound 20 µM): 0.429
- relative viability ([20]; first compound 0.2 µM): 1.17
- relative viability ([20]; first compound 0.6325 µM): 1.22
- relative viability ([20]; first compound 2 µM): 1.4
- relative viability ([20]; first compound 6.325 µM): 1.26
- relative viability ([20]; first compound 20 µM): 1.16

Reference: the supplement of paper PMC10307832
